This note sets out measurements from ChEMBL document CHEMBL4725301, “Discovery of a novel 9-position modified second-generation anti-HCV candidate via bioconversion and semi-synthesis of FR901459” (Bioorg Med Chem Lett, 2020).

Structures are written as SMILES. In brackets after ≈: the same amount, converted by molar mass.

Series [1] can be described thus: AUC (0 to 24 hrs) in po dosed rat. The format is ADME, organism-based. Set-up: time < 24 hr, route oral. As to conditions: in vivo.
Series [2] is described as follows: Aqueous solubility of the compound in JP2 fluid at pH 6.8 by disintegration test. The format is physicochemical.
Series [3] can be described thus: Oral bioavailability in rat. It is filed as ADME, organism-based. As to conditions: in vivo.
The nature of series [4]: Inhibition of cyclophilin (unknown origin) assessed as inhibition of HCV FLR1 subgenomic viral replicon replication in presence of 10% FBS by luciferase reporter gene assay. Set-up: species or system Homo sapiens. A general note: Replicon systems follow genome replication, usually without infectious particles.
Series [5] in a line: Inhibition of cyclophilin (unknown origin) assessed as inhibition of HCV FLR1 subgenomic viral replicon replication in presence of 50% human serum albumin by luciferase reporter gene assay.
Series [6] has as its system Splenocyte. As to the kind of experiment: Immunosuppressive activity in mouse splenocytes assessed as inhibition of concanavalinA-induced cell proliferation. The format is cell-based.
The nature of series [7]: Inhibition of cyclophilin (unknown origin) assessed as inhibition of HCV #50-1 subgenomic viral replicon replication in presence of 5% FBS. Set-up: species or system Homo sapiens.
Series [8] is described as follows: Inhibition of cyclophilin (unknown origin) assessed as inhibition of HCV #50-1 subgenomic viral replicon replication in presence of 50% human serum albumin.
The subject of series [9] is Hepatitis C virus. Description: Antiviral activity against Hepatitis C virus genotype 1a infected in humanized liver SCID-Alb/uPA chimeric mouse assessed as log reduction in serum HCV RNA level at 15 mg/kg, po administered via gavage bid for 14 days cotreated with interferon-alfa2b at 400 U/g, sc administered qd measured for 7 days follow-up period without compound administration post-last dose. The format is functional, Hepacivirus hominis, subtype 1a. Conditions: time 14 day.

The term AUC(0-t) denotes the area under the concentration-time curve up to a stated or last time point. By solubility is commonly meant how much of the substance goes into solution per volume. Lower therefore signals little dissolved substance. The bioavailability is dose-corrected exposure relative to a reference, in per cent. The low end stands for poor availability, the high end for good availability. By EC50 is commonly meant the concentration that produces a half-maximal response. By IC50 is commonly meant the midpoint of a concentration-inhibition curve.

Regarding `C/C=C/C[C@@H](C)[C@@H](O)[C@H]1C(=O)N[C@@H]([C@@H](C)O)C(=O)N(C)[C@H](C)C(=O)N(C)[C@@H]([C@@H](C)OC)C(=O)N[C@@H](CC(C)C)C(=O)N(C)[C@@H](CC(C)C)C(=O)N[C@@H](C)C(=O)N[C@H](C)C(=O)N[C@@H](CC(C)C)C(=O)N[C@@H](CC(C)C)C(=O)N(C)[C@@H](C(C)C)C(=O)N1C`, in series [1], the AUC(0-t) at 24 h stood at 16100 ng·h/mL. Further, the solubility in series [2] was 117 µg/mL (≈ 95.9 µM). In addition, the bioavailability in series [3] turned out to be 36%.

Turning to `C/C=C/C[C@@H](C)[C@@H](O)[C@H]1C(=O)N[C@@H]([C@@H](C)O)C(=O)N(C)[C@H](COC)C(=O)N(C)[C@@H](CC(C)C)C(=O)N[C@@H](CC(C)C)C(=O)N(C)[C@@H](CC(C)C)C(=O)N[C@@H](C)C(=O)N[C@H](C)C(=O)N[C@@H](C[C@H](C)CN2CCOCC2)C(=O)N[C@@H](CC(C)C)C(=O)N(C)[C@@H](C(C)C)C(=O)N1C`, the EC50 in series [4] was 0.11 µg/mL; in series [5], 0.25 µg/mL.

For `C/C=C/C[C@@H](C)[C@@H](O)[C@H]1C(=O)N[C@@H]([C@@H](C)O)C(=O)N(C)CC(=O)N(C)[C@@H](CC(C)C)C(=O)N[C@@H](CC(C)C)C(=O)N(C)[C@@H](CC(C)C)C(=O)N[C@@H](C)C(=O)N[C@H](C)C(=O)N[C@@H](C[C@H](C)CN2CCOCC2)C(=O)N[C@@H](CC(C)C)C(=O)N(C)[C@@H](C(C)C)C(=O)N1C`, the IC50 in series [6] was determined as 0.12 µg/mL (≈ 0.093 µM). In addition, the EC50 in [7] was found to be 0.22 µg/mL.

In the case of `C/C=C/C[C@@H](C)[C@@H](O)[C@H]1C(=O)N[C@@H]([C@@H](C)O)C(=O)N(C)CC(=O)N(C)[C@@H](CC(C)C)C(=O)N[C@@H](CC(C)C)C(=O)N(C)[C@@H](CC(C)C)C(=O)N[C@@H](C)C(=O)N[C@H](C)C(=O)N[C@@H](CC(C)C)C(=O)N[C@@H](CC(C)C)C(=O)N(C)[C@@H](C(C)C)C(=O)N1C`, the IC50 in series [6] stood at 0.026 µg/mL (≈ 0.0216 µM). Moreover, the EC50 in series [7] amounted to 0.096 µg/mL; in series [8] it was 3.7 µg/mL.

In turn, `C/C=C/C[C@@H](C)[C@@H](O)[C@H]1C(=O)N[C@@H]([C@@H](C)O)C(=O)N(C)[C@H](COC)C(=O)N(C)[C@@H](CC(C)C)C(=O)N[C@@H](CC(C)C)C(=O)N(C)[C@@H](CC(C)C)C(=O)N[C@@H](C)C(=O)N[C@H](C)C(=O)N[C@@H](C[C@H](C)COC(=O)N2CCO[C@@H](COC)C2)C(=O)N[C@@H](CC(C)C)C(=O)N(C)[C@@H](C(C)C)C(=O)N1C` displayed an AUC(0-t) at 24 h in series [1] of 12400 ng·h/mL. In [2], this compound gave a solubility of 73 µg/mL (≈ 51.3 µM). Besides, the results for the EC50 in series [4] and in [5] were 0.058 µg/mL and 0.064 µg/mL, respectively. The compound further had a bioavailability in series [3] of 12.9%. The IC50 in series [6] worked out at 0.88 µg/mL (≈ 0.619 µM).

For the compound `C/C=C/C[C@@H](C)[C@@H](O)[C@H]1C(=O)N[C@@H]([C@@H](C)O)C(=O)N(C)[C@H](COC)C(=O)N(C)[C@@H](CC(C)C)C(=O)N[C@@H](CC(C)C)C(=O)N(C)[C@@H](CC(C)C)C(=O)N[C@@H](C)C(=O)N[C@H](C)C(=O)N[C@@H](C[C@H](C)COC(=O)N(C)CCOC)C(=O)N[C@@H](CC(C)C)C(=O)N(C)[C@@H](C(C)C)C(=O)N1C`, the EC50 in [4] amounted to 0.06 µg/mL; in series [5], 0.097 µg/mL. For the same compound, in [6], the IC50 is 0.85 µg/mL (≈ 0.616 µM).

Regarding `C/C=C/C[C@@H](C)[C@@H](O)[C@H]1C(=O)N[C@@H]([C@@H](C)O)C(=O)N(C)CC(=O)N(C)[C@@H](CC(C)C)C(=O)N[C@@H](CC(C)C)C(=O)N(C)[C@@H](CC(C)C)C(=O)N[C@@H](C)C(=O)N[C@H](C)C(=O)N[C@@H](C[C@H](C)COC(=O)NCCOC)C(=O)N[C@@H](CC(C)C)C(=O)N(C)[C@@H](C(C)C)C(=O)N1C`, the IC50 in series [6] amounted to 0.75 µg/mL (≈ 0.567 µM). The results for the EC50 in [7] and in series [8] were 0.097 µg/mL and 0.55 µg/mL, respectively.

In the case of `C/C=C/C[C@@H](C)[C@@H](O)[C@H]1C(=O)N[C@@H]([C@@H](C)O)C(=O)N(C)[C@H](COC)C(=O)N(C)[C@@H](CC(C)C)C(=O)N[C@@H](CC(C)C)C(=O)N(C)[C@@H](CC(C)C)C(=O)N[C@@H](C)C(=O)N[C@H](C)C(=O)N[C@@H](C[C@H](C)CN2CCOC(COC)(COC)C2)C(=O)N[C@@H](CC(C)C)C(=O)N(C)[C@@H](C(C)C)C(=O)N1C`, in series [1], the AUC(0-t) at 24 h stood at 16900 ng·h/mL. In series [2], this compound registered a solubility of 54 µg/mL (≈ 38 µM). Also, the EC50 in series [4] was found to be 0.063 µg/mL; in series [5] it was 0.1 µg/mL. In series [3], this compound showed a bioavailability of 28.3%. For the same compound, the IC50 in series [6] was found to be 1.7 µg/mL (≈ 1.2 µM). For the same compound, the “log(activity)” value in series [9] came to 2.

`C/C=C/C[C@@H](C)[C@@H](O)[C@H]1C(=O)N[C@@H]([C@@H](C)O)C(=O)N(C)CC(=O)N(C)[C@@H](CC(C)C)C(=O)N[C@@H](CC(C)C)C(=O)N(C)[C@@H](CC(C)C)C(=O)N[C@@H](C)C(=O)N[C@H](C)C(=O)N[C@@H](C[C@H](C)COC(=O)N2CCN(C)CC2)C(=O)N[C@@H](CC(C)C)C(=O)N(C)[C@@H](C(C)C)C(=O)N1C`: the IC50 in series [6] came out at 1.9 µg/mL (≈ 1.41 µM). The EC50 in series [7] amounted to 0.16 µg/mL; in series [8], 0.22 µg/mL.

`C/C=C/C[C@@H](C)[C@@H](O)[C@H]1C(=O)N[C@@H]([C@@H](C)O)C(=O)N(C)CC(=O)N(C)[C@@H](CC(C)C)C(=O)N[C@@H](CC(C)C)C(=O)N(C)[C@@H](CC(C)C)C(=O)N[C@@H](C)C(=O)N[C@H](C)C(=O)N[C@@H](C[C@H](C)CO)C(=O)N[C@@H](CC(C)C)C(=O)N(C)[C@@H](C(C)C)C(=O)N1C`: the IC50 in series [6] turned out to be 0.28 µg/mL (≈ 0.229 µM). Further, the EC50 in series [7] stood at 0.85 µg/mL; in series [8] it was 2.4 µg/mL.

Turning to `C/C=C/C[C@@H](C)[C@@H](O)[C@H]1C(=O)N[C@@H]([C@@H](C)O)C(=O)N(C)CC(=O)N(C)[C@@H](CC(C)C)C(=O)N[C@@H](CC(C)C)C(=O)N(C)[C@@H](CC(C)C)C(=O)N[C@@H](C)C(=O)N[C@H](C)C(=O)N[C@@H](C[C@H](C)COCC(=O)N2CCOCC2)C(=O)N[C@@H](CC(C)C)C(=O)N(C)[C@@H](C(C)C)C(=O)N1C`, in [6], the IC50 was determined as 0.92 µg/mL (≈ 0.683 µM). In addition, the EC50 is 0.099 µg/mL in series [7] and 0.56 µg/mL in [8].
